Data reported in ChEMBL document CHEMBL1201862, “PubChem BioAssay data set” (2004).
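Method: 48-hour compound exposure of cells in 96-well plates, five concentrations, linear interpolation of endpoints. GI50 is the concentration that inhibits growth by half.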 Active and inactive are the calls of the source. Rule as the data show it: active = GI50 up to about 1.1 µM and inactive = higher.

Columns and labels:
Test in all cases: inhibition of tumour cell growth, NCI panel, 48 h
HT-29 = tested on: HT-29
Malme-3M = tested on: Malme-3M
SF-539 = tested on: SF-539
OVCAR-5 = tested on: OVCAR-5
HCT-116 = tested on: HCT-116
CAKI-1 = tested on: CAKI-1
MOLT-4 = tested on: MOLT-4
DU-145 = tested on: DU-145
LOX IMVI = tested on: LOX IMVI
COLO 205 = tested on: COLO 205
SF-295 = tested on: SF-295
SK-MEL-2 = tested on: SK-MEL-2
TK-10 = tested on: TK-10
786-0 = tested on: 786-0
PC-3 = tested on: PC-3
CCRF-CEM = tested on: CCRF-CEM
M14 = tested on: M14
SW-620 = tested on: SW-620
NCI-H23 = tested on: NCI-H23

| SMILES | GI50 (HT-29) | GI50 (Malme-3M) | GI50 (SF-539) | GI50 (OVCAR-5) | GI50 (HCT-116) | GI50 (CAKI-1) | GI50 (MOLT-4) | GI50 (DU-145) | GI50 (LOX IMVI) | GI50 (COLO 205) | GI50 (SF-295) | GI50 (SK-MEL-2) | GI50 (TK-10) | GI50 (786-0) | GI50 (PC-3) | GI50 (CCRF-CEM) | GI50 (M14) | GI50 (SW-620) | GI50 (NCI-H23) |
| --- | --- | --- | --- | --- | --- | --- | --- | --- | --- | --- | --- | --- | --- | --- | --- | --- | --- | --- | --- |
| OC(C#Cc1ccccc1)(c1ccccc1)c1ccccc1 | 26.7 µM (inactive) | 24.2 µM (inactive) | 77.1 µM (inactive) | 30.5 µM (inactive) | > 100 µM (inactive) | 22.4 µM (inactive) | 47.6 µM (inactive) | 30.1 µM (inactive) | 19 µM (inactive) | 50.7 µM (inactive) | 30.3 µM (inactive) | 23.8 µM (inactive) | 31 µM (inactive) | > 100 µM (inactive) | 31.9 µM (inactive) | 11.6 µM (inactive) | > 100 µM (inactive) | 28.4 µM (inactive) | 53.5 µM (inactive) |
| CCOn1cc(C[C@@]2(O)C(=O)OC3[C@@H](O)CO[C@@]32O)c2ccccc21 (stereo partly drawn) | > 100 µM (inactive) | > 100 µM (inactive) | > 100 µM (inactive) | > 100 µM (inactive) | > 100 µM (inactive) | > 100 µM (inactive) | > 100 µM (inactive) | > 100 µM (inactive) | > 100 µM (inactive) | > 100 µM (inactive) | > 100 µM (inactive) | > 100 µM (inactive) | > 100 µM (inactive) | 94.4 µM (inactive) | > 100 µM (inactive) | 36.5 µM (inactive) | > 100 µM (inactive) | > 100 µM (inactive) | > 100 µM (inactive) |
| NC1=NCCN1CC(=O)O [CYCLOCREATINE] | > 1000 µM (inactive) | > 1000 µM (inactive) | > 1000 µM (inactive) | > 1000 µM (inactive) | > 1000 µM (inactive) | > 10000 µM (inactive) | > 1000 µM (inactive) | > 1000 µM (inactive) | > 1000 µM (inactive) | > 1000 µM (inactive) | > 10000 µM (inactive) | > 1000 µM (inactive) | > 1000 µM (inactive) | > 1000 µM (inactive) | > 1000 µM (inactive) | > 1000 µM (inactive) | > 1000 µM (inactive) | > 1000 µM (inactive) | > 1000 µM (inactive) |
| CN(CCNC(=O)c1cn(C)c2c1ccc1cc(Cl)ccc12)CCNC(=O)c1cn(C)c2c1ccc1cc(Cl)ccc12 | 1.93 µM (inactive) | 2.21 µM (inactive) | 4.78 µM (inactive) | 1.97 µM (inactive) | 1.71 µM (inactive) | 1.6 µM (inactive) | 5.01 µM (inactive) | 1.73 µM (inactive) | 5.71 µM (inactive) | 1.2 µM (inactive) | 1.86 µM (inactive) | 6.92 µM (inactive) | 7.13 µM (inactive) | 1.99 µM (inactive) | 5.5 µM (inactive) | 5.74 µM (inactive) | 1.59 µM (inactive) | 5.28 µM (inactive) | 2.01 µM (inactive) |
| Cc1c(CCCl)c(=O)n2c([nH]c3ccccc32)c1C#N | 1.6 µM (inactive) | 0.678 µM (active) | 1.48 µM (inactive) | 2.33 µM (inactive) | 0.614 µM (active) | 1.46 µM (inactive) | 0.237 µM (active) | 2.21 µM (inactive) | 0.619 µM (active) | 0.148 µM (active) | 1.66 µM (inactive) | 2.79 µM (inactive) | 2.54 µM (inactive) | 1.51 µM (inactive) | 1.45 µM (inactive) | 0.402 µM (active) | 1.6 µM (inactive) | 0.973 µM (active) | 1.53 µM (inactive) |
| Cc1nc2ccccc2n1Cc1ccc(NC(=S)NC2CCCCC2)cc1 | 30.3 µM (inactive) | 21.7 µM (inactive) | > 72.3 µM (inactive) | > 100 µM (inactive) | 34.9 µM (inactive) | 38 µM (inactive) | 5.36 µM (inactive) | 36.8 µM (inactive) | 10.6 µM (inactive) | 31.1 µM (inactive) | 10.1 µM (inactive) | 15.7 µM (inactive) | > 100 µM (inactive) | 36.9 µM (inactive) | 31.3 µM (inactive) | 10 µM (inactive) | 30.1 µM (inactive) | 41.3 µM (inactive) | 17.5 µM (inactive) |
| NC(CSC1c2ccccc2-c2ccccc21)C(=O)O (stereo not drawn) | > 100 µM (inactive) | > 100 µM (inactive) | > 100 µM (inactive) | > 100 µM (inactive) | > 100 µM (inactive) | > 100 µM (inactive) | > 100 µM (inactive) | > 100 µM (inactive) | > 100 µM (inactive) | > 100 µM (inactive) | > 100 µM (inactive) | > 100 µM (inactive) | > 100 µM (inactive) | > 100 µM (inactive) | > 100 µM (inactive) | > 100 µM (inactive) | > 100 µM (inactive) | > 100 µM (inactive) | > 100 µM (inactive) |
